# Source: patent publication US20100316574A1, “Oncofetal Antigen/Immature Laminin Receptor Peptides for the Sensitization of Dendritic Cells for Cancer Therapy” (Quantum Immunologics, Inc., priority 2009, published 2010)
# “Also recorded” adds a separate entry of the source.
# How the values were obtained:
# T-cells = settings: previously described epitope; cited from earlier work
# DU145 cells = experiment: CellTiter-Blue cell viability assay; type: cell-based; settings: for effect on cell viability: compared to peptide diluent control; for cell viability versus controls: overnight
# Description: All cells were grown in RPMI 1640 with L-glutamine; 100 I.U. Penicillin, 100 μg/ml Streptomycin, and 10% fetal calf serum at 37° C. in a humid chamber (Mediatech, Inc. Manassas, Va.). DU 145 cells were obtained from American Type Culture Collection (ATCC, Manassas, Va.) and grown in media following standard protocols. DU145 cells were grown to between 75 and 85% density and collected following standard protocols and counted using a modified Neubauer brightline hemacytometer and suspended at 400,000 cell/ml.
# (§1) Peptides were dissolved in either phosphate buffered saline (PBS) or DMSO and then PBS to a maximum of 20% DMSO and a 2× solution was made and placed into complete medium. After being diluted to appropriate concentration, 50 μl was dispensed into a 96-well assay plate, either coated with laminin/entactin complex (50 μg/ml) or untreated (Black with clear bottom) (Corning Life Sciences, Corning, N.Y.), 50 μl of cells (20,000 cells/well), and were grown overnight. Cells then had 20 μl of CellTiter-Blue added ((Promega, Madison, Wis.)) and incubated for an additional 2 hours at 37° C. Cells were then read on a DTX-880 (Beckman Inc.) following standard fluorescent protocols with an integration time of 0.001 sec. To determine if caspase activity was induced, Caspase 3/7 activity was determined using ApoOne assay (Promega, Madison, Wis.). The data was exported to Excel and then to Prism 5.0 (GraphPad Software, Inc) where it was plotted, and analyzed for statistical differences between the background control (diluents used for the peptide) using a one-way ANOVA.
# Caspase 3/7 = experiment: ApoOne Caspase 3/7 assay; type: cell-based; settings: DU145; data not shown
# Description: as §1
# [1] = system: dendritic cells pulsed with recombinant human OFA/iLRP; experiment: FACS binding of fluorescein-labeled 129 and 129-a peptides to dendritic cells pulsed with rHu OFA; type: cell-based; settings: FITC-labeled peptide on dendritic cells pulsed with rHu OFA 100 ng/ml
# Description: CD 14+ monocytes were grown in serum-free dendritic cell medium containing: 1000 IU/ml GM-CSF and 1000 IU/ml of IL-4 (Cell Genix Antioch, IL) at 1×10^6 cells per ml. The cells were pulsed with rHu OFA at 100 ng/ml for 36 hours. The pulsed dendritic cells were matured using serum-free dendritic cell medium containing: 10 ng/ml IL-1beta, 1000 IU/ml IL-6, and 5 ng/ml TNF-alpha with 1 μm prostaglandin E2 and matured for 2 days. At the end of two days, the cells were scraped from the plate and analyzed using flow cytometry analysis.
# Briefly, the peptide that was labeled on a cysteine included allowing for conjugation using Fluorsceine-5-maledimide (Pierce/Thermo, Rockford, Ill.) following standard protocols. The unbound fluorsceine was removed using a standard dye-removal column (Pierce/Thermo, Rockford, Ill.). This cysteine can also be used to conjugate the peptides to a range of different products.
# To determine if the maturation was successful, the cells were analyzed with CD14, CD83, CD80/86, and Class II MHC (HLA-DR) following standard protocols (R&D systems; Minneapolis, Minn.). Briefly, 0.5×10^5 cells per tube were suspended in 25 μl or phosphate buffered saline with 2% fetal calf serum. […] The cells were resuspended in 400 μl of PBS with 2% FCS and analyzed. If the cells could not be analyzed immediately, then they were fixed in 0.5% formaldehyde/PBS at 4° C. in the dark. […]
substance,measurement,setting,value
"amino acids 49-60: peptide made against the previously described OFA/iLRP epitope (amino acids 49-60), Rohrer 2006 (INLKRTWEKLLL; UniProt P08865 49-60, looked up, fragment) [reference compound]",T-cell proliferation,T-cells,able to proliferate T-cells
same,effect on cell viability,DU145 cells,unable to affect cell viability; also recorded: did not affect cell viability
same,Caspase 3/7 activity / induction of apoptosis,Caspase 3/7,unable to affect cell viability or induce apoptosis
"GRFTPGTFTNQIQAAFREP [peptide 2, start site 101]",effect on cell viability,DU145 cells,significant effect
same,effect on cell viability,DU145 cells; listed as Peptide 2,significantly different than the control
same,decrease of cell viability,"DU145 cells; versus control, p<0.05",over 2 fold
same,Caspase 3/7 activity / induction of apoptosis,Caspase 3/7,no significant change
TWEKLLLAARAIVAIENPAD [peptide 1],cell viability versus controls,DU145 cells; laminin/entactin coated plate (laminin),no statistical difference
same,cell viability versus controls,DU145 cells; uncoated plate (w/o laminin),no statistical difference
"Ac-CADHQPLTEASYVNLPT-amide (Ac-CADHQPLTEASYVNLPT-NH2) [129 peptide, start site 129]",mean fluoresence intesity (MFI),[1],"11,390+/−500.6"
